Patent EP0563814A2, “Carbonic acid esters of 2-amino-7-(1,3-dihydroxy-2-propoxymethyl)purines, their preparation and their use as antiviral agents” (HOECHST AKTIENGESELLSCHAFT, priority 1992, dated 1993)
Like-named read-outs stand apart in the source and are kept apart here.

Columns and labels:
[1] = tested on: Herpes simplex 1 Virus (HSV-1); experiment: Activity against systemic HSV-1 infection in the NMRI mouse, oral treatment; assay type: in vivo, NMRI-Mäuse; settings: i.p. infection, observation two weeks
Text: Wirkung gegen systemische Herpes simplex 1 Virus (HSV-1) Infektion: NMRI-Mäuse, spezifisch pathogenfrei, im Gewicht von 15-18 g wurden intraperitoneal mit HSV-1 infiziert und anschließend mit den erfindungsgemäßen Verbindungen oral therapiert. Die Behandlung erfolgte erstmals 3 Stunden nach der Infektion und wurde zweimal täglich über 4 Tage fortgesetzt. Der Behandlungserfolg wurde anhand des Krankheitsverlaufes und der Überlebensrate gegenüber der unbehandelten Infektionskontrolle bestimmt. Letztere erhielt anstelle der erfindungsgemäßen Verbindungen physiologische Kochsalzlösung appliziert. Die Beobachtungszeit betrug zwei Wochen. Tabelle 1 zeigt die Ergebnisse dieser Untersuchung. Tabelle 1

[2] = Oral bioavailability in the mouse; assay type: in vivo, Maus; settings: for AUC(0-inf): analyte Formel 1', read-out: AUD (0-->oo) (converted)
Text: Folgende Bioverfügbarkeiten der Verbindungen der Formel 1' wurden bei Mäusen nach oraler Gabe der erfindungsgemäßen Verbindungen ermittelt: […]

Bioverfügbarkeit ([2]; i.v., 25 mg/kg, availability of Formel 1') [%] | AUC(0-inf) ([2]; in vivo, iv, 25 mg/kg) [µg·h/mL] | AUC(0-inf) ([2]; in vivo, po, 100 mg/kg) [µg·h/mL] | bioavailability ([2]; in vivo, po, 100 mg/kg, availability of Formel 1', read-out: Bioverfügbarkeit) [%] | SMILES | mittlere Überlebenszeit (Tage) ([1]; 9 x 10 µmol/kg) | Überlebende/ Gruppengröße ([1]; 9 x 10 µmol/kg) | mittlere Überlebenszeit (Tage) ([1]; 9 x 30 µmol/kg) | Überlebende/ Gruppengröße ([1]; 9 x 30 µmol/kg) | mittlere Überlebenszeit (Tage) ([1]; 9 x 100 µmol/kg) | Überlebende/ Gruppengröße ([1]; 9 x 100 µmol/kg)
 |  |  |  | CC(=O)OCC(COC(C)=O)OCn1cnc2nc(N)ncc21 [Beispiel 1, 2-Amino-7-[(1,3-bis-acetoxy-2-propoxy)methyl]purin] | > 14 | 5/5 | > 14 | 5/5 | > 14 | 5/5
 |  |  |  | CCCC(=O)OCC(COC(=O)CCC)OCn1cnc2nc(N)ncc21 [Beispiel 2, 2-Amino-7-[(1,3-bis-butyryloxy-2-propoxy)methyl]purin] |  |  |  | 5/5 |  | 5/5
 |  |  |  | CCC(=O)OCC(COC(=O)CC)OCn1cnc2nc(N)ncc21 [Beispiel 3, 2-Amino-7-[(1,3-bis-propionyloxy-2-propoxy)methyl]purin] |  |  |  | 5/5 |  | 5/5
100 | 0.223 | 0.154 | 17.2 | Nc1ncc2c(ncn2COC(CO)CO)n1 [Formel 1', 2-Amino-7-[(1,3-dihydroxy-2-propoxy)methyl]purin, reference compound] | 10.5 ± 0.7 | 3/5 | 9.5 ± 1.3 | 1/5 |  | 5/5
